Consider one substance from patent US8409602B2, “Sealants for fetal membrane repair” (Northwestern University, priority 2009, dated 2013).

For data set [1], the system named is fetal membranes. Briefly: Direct contact-induced apoptosis (TUNEL) in fetal membranes. The data set is classed as cell-based. As for the experimental part:
Toxicity tests. Toxicity of sealants for fetal membrane cells was evaluated using direct contact and elution tests, as per International Organization for Standardization (ISO) 10993-5 guidelines.
Direct contact cytotoxicity. […] 4.5 software (Carl Zeiss).

In the next data set the test system is epididymal fat pad. In words: Material-only implantation at the murine epididymal fat pad. The settings on record: mouse, in vivo. Also on record: species or system C57BL6 mice. As for the experimental part: Material-only implantation. Healthy, age-matched male C57BL6 mice (Jackson Laboratories, Bar Harbor, Me.) were anesthetized with nebulized isoflurane (IsoThesia; Butler/Abbott Laboratories, North Chicago, Ill.) and intraperitoneal injection of 2% Avertin (2,2,2-tribromoethanol, Sigma) at 0.3 mg/g body weight, prior to shaving of the abdomen and sterile preparation of the surgical site. The left epididymal fat pad was exposed through midline lower abdominal incision and manipulation of the tissue flap. This thin, well-vascularized tissue is analogous to the omentum of larger mammals and has dimensions on the order of 1.5—1.5 cm. Sterile, two-component mixing and adhesive delivery was achieved by a dual-barrel blending connector with mixer device (Micromedics, St Paul, Minn.) containing sterile-filtered 300 mg/mL cPEG and 0.056 M sodium periodate, respectively.
Following topical delivery of approximately […] adhesive, the deposition site was left undisturbed for 1 min. The sample site was then manually reinserted into the lower abdominal cavity and the incision closed with double-layer suture. Mice were monitored postoperatively until conscious recovery. At three days, two weeks, six weeks, and one-year post-implant, the adhesive and associated adipose tissue was surgically removed from anesthetized mice, prior to euthanasia. […]

The test system of data set [2] is fetal membranes.
Experimental: Direct contact cytotoxicity. Direct contact studies were performed with term fetal membranes obtained from three cases. The amniotic layer was chosen for sealant application (FIG. 1A) because this layer was proposed to be the strength-bearing layer of fetal membranes and major determinant for PPROM.^31 2×1 cm patches of freshly harvested fetal membranes were placed into wells of 6-well plates with amnion layer up. […] Membranes covered with sealant were covered with 3 mL culture medium (Ham's F-12/DMEM supplemented with 10% FBS, 100 U/ml penicillin, and 100 μg/ml streptomycin) and cultured for 24 h at 37° C. […] Deparaffinized sections were either stained with hematoxylin-eosin (H/E), or stained for apoptotic cells using TUNEL technology (Terminal deoxynucleotidyl transferase dUTP nick end labeling; In Situ Cell Death Detection Kit, Fluorescein (Roche Diagnostics GmbH, Mannheim, Germany). For total cell counts, all cell nuclei were counterstained with 4′,6-diamidin-2′-phenylindol-dihydrochlorid (DAPI; Sigma, Buchs, Switzerland). The histologic images were taken with a Zeiss Axiovert 200M fluorescent microscope (Carl Zeiss, Goettingen, Germany) equipped with an Zeiss AxioCam MRc digital camera and analysed with AxioVision Rel. […] One tissue section per case was analysed, taking four optical fields per section for analysis.

Turning to “four-armed catechol-terminated polyethylene glycol (cPEG) [cPEG adhesive]”, the “apoptosis compared with control” value with fetal membranes [1] is listed as “did not enhance apoptosis over control”. In addition, in the data set on epididymal fat pad, the “immediate local reaction at deposition site” value is recorded as “no immediate visible inflammation or redness” and the non-specific postsurgical adhesions entry was “no evidence of non-specific postsurgical adhesions”. Further, the “effect on membrane morphology” value in the data set on fetal membranes [2] is on record as “normal membrane morphology appeared maintained”.
